Results from US20250314586A1, “SYSTEMS AND METHODS FOR HIGH THROUGHPUT SINGLE MOLECULE TRACKING IN LIVING CELLS” (EIKON THERAPEUTICS, INC., priority 2022, published 2025).
Entries after “also recorded” stand apart in the source; their conditions may differ. Where two headings read alike, the source gives them in different places.

Columns and labels:
Estrogen Receptor (ER) [1] = target: T1, Estrogen Receptor (ER) (Homo sapiens, UniProt P03372); assay: htSMT of Halo-ER in U2OS cells (fbound, Dfree); type: cell-based; details: for effect of pathway inhibitors on ER fbound / ER movement: retest and dose titration of pathway inhibitors
T1 construct: expressed in transfected cells; host or cells: U2OS
T1 sequence (P03372 1-595): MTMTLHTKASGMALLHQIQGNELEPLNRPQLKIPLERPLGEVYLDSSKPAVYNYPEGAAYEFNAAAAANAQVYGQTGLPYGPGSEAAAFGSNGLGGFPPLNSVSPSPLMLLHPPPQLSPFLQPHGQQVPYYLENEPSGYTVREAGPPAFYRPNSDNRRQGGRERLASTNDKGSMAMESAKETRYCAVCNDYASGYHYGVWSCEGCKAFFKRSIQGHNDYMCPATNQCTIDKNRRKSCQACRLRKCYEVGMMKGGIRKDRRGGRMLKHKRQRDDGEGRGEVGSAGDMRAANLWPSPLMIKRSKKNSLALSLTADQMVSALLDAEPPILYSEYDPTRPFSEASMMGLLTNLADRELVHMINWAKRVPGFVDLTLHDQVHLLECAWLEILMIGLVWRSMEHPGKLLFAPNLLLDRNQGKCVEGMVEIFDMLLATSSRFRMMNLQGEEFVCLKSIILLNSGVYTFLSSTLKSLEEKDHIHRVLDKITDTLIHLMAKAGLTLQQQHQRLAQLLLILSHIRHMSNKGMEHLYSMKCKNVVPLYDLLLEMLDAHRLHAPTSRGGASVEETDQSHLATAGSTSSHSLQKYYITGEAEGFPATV

[2] = target: T2, glucocorticoid receptor (GR) (Homo sapiens, UniProt P04150); assay: htSMT of Halo-GR in U2OS cells; type: cell-based; details: 1 μM antagonist, singly or co-administered with cognate agonist
T2 construct: Because U2OS cells express GR endogenously, HaloTag was inserted right before the stop codon of endogenous NR3C1; endogenous in cells; host or cells: U2OS (CRISPR/Cas9 knock-in at the NR3C1 locus)
T2 sequence (P04150 1-777): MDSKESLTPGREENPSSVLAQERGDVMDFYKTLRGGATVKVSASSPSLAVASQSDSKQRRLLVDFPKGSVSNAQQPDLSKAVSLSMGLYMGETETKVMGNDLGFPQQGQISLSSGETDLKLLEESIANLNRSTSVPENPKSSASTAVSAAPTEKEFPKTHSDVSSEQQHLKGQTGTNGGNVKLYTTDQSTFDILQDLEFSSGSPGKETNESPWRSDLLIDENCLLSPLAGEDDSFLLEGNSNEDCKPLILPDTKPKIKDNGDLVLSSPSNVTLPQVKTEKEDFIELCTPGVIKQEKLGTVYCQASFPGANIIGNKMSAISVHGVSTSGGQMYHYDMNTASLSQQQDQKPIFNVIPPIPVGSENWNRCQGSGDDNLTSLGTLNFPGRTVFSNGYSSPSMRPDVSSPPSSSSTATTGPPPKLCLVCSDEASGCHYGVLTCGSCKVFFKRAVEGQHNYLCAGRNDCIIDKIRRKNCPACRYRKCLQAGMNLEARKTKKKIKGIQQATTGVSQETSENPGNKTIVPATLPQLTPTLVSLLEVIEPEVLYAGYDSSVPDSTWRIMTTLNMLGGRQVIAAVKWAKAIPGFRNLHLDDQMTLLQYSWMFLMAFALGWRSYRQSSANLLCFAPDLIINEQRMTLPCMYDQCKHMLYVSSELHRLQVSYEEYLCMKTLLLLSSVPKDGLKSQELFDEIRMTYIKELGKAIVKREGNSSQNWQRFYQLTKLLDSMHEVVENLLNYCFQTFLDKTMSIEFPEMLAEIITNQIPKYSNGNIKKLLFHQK
Excerpt: Where appropriate, compounds were serially diluted in an Echo Qualified 384-Well Low Dead Volume Source Microplate (0018544, Beckman Coulter) to generate dose-titration source material.

androgen receptor (AR) = androgen receptor (AR) (Homo sapiens, UniProt P10275)
androgen receptor (AR), sequence (P10275 whole entry): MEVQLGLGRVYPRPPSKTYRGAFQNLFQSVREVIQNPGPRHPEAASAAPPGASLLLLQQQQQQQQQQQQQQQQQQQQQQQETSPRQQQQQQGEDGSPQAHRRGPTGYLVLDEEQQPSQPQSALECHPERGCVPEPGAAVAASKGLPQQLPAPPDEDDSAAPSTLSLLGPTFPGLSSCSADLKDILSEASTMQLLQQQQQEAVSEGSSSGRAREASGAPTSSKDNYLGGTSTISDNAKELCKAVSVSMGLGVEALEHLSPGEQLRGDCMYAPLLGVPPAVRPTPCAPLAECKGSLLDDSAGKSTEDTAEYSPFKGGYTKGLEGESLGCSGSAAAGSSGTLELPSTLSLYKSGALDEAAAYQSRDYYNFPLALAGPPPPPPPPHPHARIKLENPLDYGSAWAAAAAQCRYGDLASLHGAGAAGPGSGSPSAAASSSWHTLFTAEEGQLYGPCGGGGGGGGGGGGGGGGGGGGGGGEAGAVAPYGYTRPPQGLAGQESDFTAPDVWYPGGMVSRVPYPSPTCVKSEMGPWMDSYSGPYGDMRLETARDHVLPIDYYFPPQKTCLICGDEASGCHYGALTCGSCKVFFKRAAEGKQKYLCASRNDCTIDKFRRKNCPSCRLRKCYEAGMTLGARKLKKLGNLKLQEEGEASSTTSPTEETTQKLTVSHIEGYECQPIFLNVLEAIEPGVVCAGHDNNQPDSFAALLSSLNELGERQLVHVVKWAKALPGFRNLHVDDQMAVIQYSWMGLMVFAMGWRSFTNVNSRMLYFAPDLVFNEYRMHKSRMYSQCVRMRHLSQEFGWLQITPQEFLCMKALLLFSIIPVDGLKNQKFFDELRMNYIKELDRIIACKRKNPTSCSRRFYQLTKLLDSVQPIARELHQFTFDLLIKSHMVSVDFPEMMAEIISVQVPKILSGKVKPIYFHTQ

Estrogen Receptor (ER) [3] = target: T1, Estrogen Receptor (ER); assay: kinetic SMT (kSMT) of ER after compound addition; type: cell-based; details: 100 nM compound
Estrogen Receptor (ER) [4] = target: T1, Estrogen Receptor (ER); assay: residence time imaging of ER-Halo (track length survival); type: cell-based; details: 100 nM HSP90 inhibition, normalized to DMSO
ER = ER (Homo sapiens, UniProt P03372); assay: Western blot of ER after compound treatment; type: cell-based; details: 100 nM fulvestrant, 24 hours; MCF7, T47d, U2OS Halo-ER
Description: Cells were grown in the same conditions as described previously. […] Cells are lysed in 200 μL 1× Cell Lysis Buffer (catalogue number 9803, Cell Signaling). Protein lysate concentration is then determined using BCA protein assay kit (Catalog number 23225, Pierce™ BCA Protein Assay Kit) following manufacturer instructions. Capillary Western Immunoassay were performed using Jess Protein Simple following manufacturer's instruction (protein simple, USA). Levels of αER (1:100, RM-9101) were normalized to loading control β-tubulin (1:100, NC0244815 LI-COR 92642213, Thermo Fisher). The peaks were analyzed with the Compass software (Protein Simple, USA).

Row | Compound | effect of pathway inhibitors on ER fbound / ER movement (Estrogen Receptor (ER) [1]) | t1/2 of increase in ER fbound (Estrogen Receptor (ER) [3]) | time at which overall effect on ER fbound reaches plateau (Estrogen Receptor (ER) [3]) | decrease in total number of long binding events (Estrogen Receptor (ER) [4]) | also measured
1 | 4-hydroxytamoxifen |  |  |  |  | change in ER fbound, bioactive screen (Estrogen Receptor (ER) [1]): significantly increased fbound; maximal increase in ER fbound, compared with SERDs fulvestrant and GDC-0927 (Estrogen Receptor (ER) [1]): lower maximal increases in fbound
2 | CN(C)c1ccc(C(c2ccc(N(C)C)cc2)c2cc([N+](=O)[O-])ccc2Cl)cc1 [AL082D06] |  |  |  |  | effect on GR chromatin binding (fbound) [2]: decrease in chromatin binding
3 | CC(O)c1cc(C(=O)N[C@@H](C)Cn2ccc(-c3ccc(C#N)c(Cl)c3)n2)[nH]n1 (some centres unmarked) [Darolutamide] |  |  |  |  | effect on AR chromatin binding (fbound) (androgen receptor (AR)): decrease in chromatin binding
4 | C[C@]12CC[C@@H]3c4ccc(O)cc4C[C@@H](CCCCCCCCC[S+]([O-])CCCC(F)(F)C(F)(F)F)[C@H]3[C@@H]1CC[C@@H]2O (some centres unmarked) [fulvestrant] |  |  |  |  | change in ER fbound, bioactive screen (Estrogen Receptor (ER) [1]; 1 μM compound versus DMSO, 5,067-molecule screen): caused an increase in fbound; also recorded: significantly increased fbound; ER degradation by western blot (ER): leads to the degradation of ER

More lines, main results first:

Row | effect of pathway inhibitors on ER fbound / ER movement (Estrogen Receptor (ER) [1]) | t1/2 of increase in ER fbound (Estrogen Receptor (ER) [3]) | time at which overall effect on ER fbound reaches plateau (Estrogen Receptor (ER) [3]) | Compound | decrease in total number of long binding events (Estrogen Receptor (ER) [4]) | also measured
5 | increase in fbound | 17.5 min | plateau after an hour | COc1cccc(-c2cc(F)ccc2[C@H]2Cc3nc(N)nc(C)c3C(=O)N2)n1 [HSP990] | two | 
6 | increase in fbound | 19.3 min | plateau after an hour | CC(C)c1cc(-c2n[nH]c(=O)n2-c2ccc3c(ccn3C)c2)c(O)cc1O [ganetespib] | four | 
